Source: patent EP3725799B1, “PEPTIDE BINDING TO PL-L1 AND USE THEREOF” (Kyungpook National University Industry-Academic Cooperation …, priority 2017, dated 2025)
No end group written: not given here.

Columns and labels:
[1] = system: CT26 mouse syngeneic colon tumor model; test: Combination therapy of PD-L1 binding peptides with doxorubicin (tumor volume, body weight, survival, immune cell analysis by flow cytometry); format: in vivo
Description: (§1) 6-8-week-old WT Balb/c mice were purchased. Mice was cared and maintained under the guidelines of the Institutional Animal Care and Use Committee (IACUC) of Kyungpook National University (2014-0001-8.). Tumor was injected onto the lower right flank of the mice. For the in-vivo homing imaging, the tumor was developed for 7 days, after the tumor size reached to 100mm^3, the mice were injected with 100µl of 100mM Flamma-675 NIR fluorescence dye labelled peptides and allow the complete circulation for an hour. After incubation, the mice were anesthetized, and the image was taken using the IVIS imaging system. After completing the imaging, the mice were sacrificed and the tumor along with the other organs were isolated out and subjected to ex-vivo imaging using the IVIS imaging machine. For the antitumor therapy the mice were randomized and grouped after the tumor size was reached to approximately 100mm^3. The peptide was then injected intravenously (5mg/kg) 100µg/mice for 3 weeks, 3 injections/ week. Doxorubicin was injected intraperitoneal (4mg/kg) once a week. Tumor size was measured using a digital caliper, and the tumor volume was calculated using the formula (Volume ¼(L-W-H)/2. (Length: longest dimension, Width: shorter dimension, parallel to the mouse body and Height: perpendicular to the length and width). All mice were checked for the ulceration and at the end of the treatment and the mice were sacrificed for the immune cell analysis.
Tumors were isolated, minced and incubated with a digestion buffer containing collagenase D (5mg/ml) with the RPMI-1640 medium at 37 °C for 40min. The cell suspension was passed through a cell strainer. The single cell suspension was made ready to use and CD45 antibody was used to stain the tumor infiltrating leukocytes and then analyzed with following antibodies for CD4, CD8 and F4/80. The stained cells were then subjected to flow cytometry (Novocyte).
To enhance the efficacy of immunotherapy with PD-L1-binding peptides, the present inventors combined the peptides with doxorubicin, a chemotherapeutic agent known to induce immunogenic cell death, in CT26 mouse syngeneic colon tumor model. PD-L1 peptides doses were reduced from 12 injections to 9 injections and doxorubicin was given once a week (FIG. 6a). The combination therapy controlled the tumor volume more drastically compared to the previous single treatment (FIG. 6b). In addition, the combination therapy maintained the body weight unchanged compared to the control group, and increased the survival percentage (FIG. 6c and FIG. 6d).

[2] = Serum stability of PD-L1 targeting peptides; format: in vitro ADME; conditions: incubated with whole serum obtained from mice up to 24h; HPLC peptide peak
Description: Mouse blood was collected and allowed to cloth using a microtube for 15-20 min in RT. Serum was then centrifuged at 12000rpm at 4 °C. The upper portion (serum) was collected for testing the peptide stability. The incubated samples were diluted 100-fold and fractionated by C18 reverse phage high performance liquid chromatography (HPLC) with a linear gradient of acetonitrile (0.1% trifluoroacetate in water for equilibration and 0.1% trifluoroacetate in acetonitrile for elution). The peptide peak was collected and vacuum dried.
To measure the KD values of the peptides SPR assays were performed using a streptavidin chip coated with biotin-peptides (FIG. 3a and FIG. 3b). Four different concentrations of PD-L1 binding peptides were for PD-L1Pep-2. […] PD-L1 expression was then knocked down in the MDA-MB231 cell expressing PD-L1. siRNA was tested at different concentration (FIG. 3d). […] To further examine the stability of PD-L1 binding peptides, the peptide was incubated with whole serum obtained from mice up to 24h.

[3] = system: CT26 syngeneic mouse model; test: Antitumor therapy with PD-L1 binding peptides alone (tumor volume, body weight, survival, immune cell analysis, immunostaining); format: in vivo; conditions: peptide intravenously every alternative day for 24 days; compared to the control peptide and PBS group
Description: as §1, with “After completing the imaging, the mice were sacrificed and the tumor along with the other organs were isolated out and subjected to ex-vivo imaging using the IVIS imaging machine. For the antitumor therapy the mice were randomized and grouped after the tumor size was reached to approximately 100mm^3. The peptide was then injected intravenously (5mg/kg) 100µg/mice for 3 weeks, 3 injections/ week. Doxorubicin was injected intraperitoneal (4mg/kg) once a week.” left out, “analysis. […]” for “analysis.”
Tumors were isolated, minced and incubated with a digestion buffer containing collagenase D (5mg/ml) with the RPMI-1640 medium at 37 °C for 40min. […] The single cell suspension was made ready to use and CD45 antibody was used to stain the tumor infiltrating leukocytes and then analyzed with following antibodies for CD4, CD8 and F4/80. […]

[4] = molecular target: T1, PD-L1 on MDA-MB231 cells (human, UniProt Q9NZQ7 19-290); test: immunofluorescence and flow cytometry, FITC-peptide on MDA-MB231 cells
T1 construct: whole, on cells; also called MDA-MB 231 cells expressing PD-L1

[5] = molecular target: T2, GFP-tagged PD-L1 transiently overexpressed on Hek-293T cells (human, UniProt Q9NZQ7 19-290); test: phage peptide display selection on PD-L1 overexpressing cells
T2 construct: whole, on cells; also called PD-L1-overexpressing cells; not shown: GFP tag

[6] = molecular target: T2, GFP-tagged PD-L1 transiently …; test: immunofluorescence, FITC-peptide on transfected HEK 293T cells
[7] = 'from' value of the printed increase, apparently single peptide treatment
[8] = 'to' value of the printed increase, apparently combination with doxorubicin

T2 sequence (Q9NZQ7 19-290): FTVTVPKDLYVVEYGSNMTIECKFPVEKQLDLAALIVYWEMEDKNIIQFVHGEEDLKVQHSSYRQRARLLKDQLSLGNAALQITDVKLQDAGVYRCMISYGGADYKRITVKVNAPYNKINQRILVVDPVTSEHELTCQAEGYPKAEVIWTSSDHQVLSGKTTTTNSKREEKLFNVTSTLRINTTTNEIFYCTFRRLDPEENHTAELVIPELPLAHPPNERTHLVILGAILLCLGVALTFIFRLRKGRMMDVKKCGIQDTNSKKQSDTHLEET
T1 sequence (Q9NZQ7 19-290): as above

## CLQKTPKQC [PD-L1Pep-1]
[1]; [7]
  CD4+ T cells in tumor tissue: 0.4%
  expression percentage of CD8+ T cells in tumor tissue: 1.5%
[1]; [8]
  CD4+ T cells in tumor tissue: 6%
  expression percentage of CD8+ T cells in tumor tissue: 6.2%
[2]
  time the peptide peak remained intact in serum: 8 h
[3]
  tumor volume: robust effect

## CVRARTR [PD-L1Pep-2, CVRARTR]
[2]
  time the peptide peak remained intact in serum: 4 h

B1: PD-L1Pep-1 (peptide)
peptide: CLQKTPKQC
modifications: cysteine pairing not given here; also: N-terminal FITC, biotin or Flamma-675 according to assay
notes: also called PBP
[4]
  binding result: binds
[5]
  binding result: binds

B2: PD-L1Pep-2 (peptide)
peptide: CVRARTR
modifications: also: N-terminal FITC, biotin or Flamma-675 according to assay
notes: Synthetic 7mer (CVRARTR); also called PBP
[4]
  binding result: binds
[6]
  binding result: binds
